# Results taken from patent US20110250184A1, “METHODS FOR DETERMINING EFFICACY OF A THERAPEUTIC REGIMEN AGAINST DELETERIOUS EFFECTS OF CYTOTOXIC AGENTS IN HUMAN” (priority 2008, published 2011).
# “Also recorded” adds a separate entry of the source.
# What was measured:
# human skin fibroblasts = assay: In vitro clonogenic survival assay, skin fibroblasts; type: cell-based
# [1] = test system: 67 radioligand receptor binding assays; assay: Panel of 67 radioligand receptor binding assays; details: in vitro primary screening
# Protocol: Additional biochemical studies were performed to screen for potential secondary or non-specific activities. ON 01210.Na was subjected to in vitro primary screening across a broad panel of 67 radioligand receptor binding assays and five cytochrome P450 enzymes: 1A2, 2C9, 2C19, 3A4, and 2D6. […] Only one cytochrome assay, CYP450 2C9, in which the activity was […] 98%, yielded a response that was considered significant. Thus, as a preliminary screen for safety and selectivity profiling, no targets were identified.
# [2] = test system: apoptosis-specific signaling events; assay: Signaling studies, apoptosis-specific signaling after radiation; type: cell-based; details: treatment prior to radiation exposure
# Excerpt: To analyze and investigate the efficacy of a cytotoxic protective drug, biological assays were developed that assisted in determination of the mechanism of action of these drugs at the intracellular level. In the case of ON 01210.Na, certain components of cellular and DNA damage-sensing, repair, and apoptosis pathways were studied in more detail.
# jejunal crypt stem cells = assay: Gastrointestinal tissue damage in irradiated mice; type: in vivo; details: pretreated prior to irradiation
# human bone marrow cells [3] = assay: Cytotoxicity to human bone marrow cells (methocult, total colony forming units); type: cell-based; details: 2 and 24 hours treatment, up to 20 μM; sodium salt
# Protocol: FIG. 2. ON 01210.Na is not cytotoxic to human bone marrow cells in vitro. Human bone marrow cells were treated with various concentrations of ON 01210.Na for (A) 2 hrs or (B) 24 hrs. The cells were then plated into methocult medium. Total colony forming units were determined 14 days later.
# The ability of ON 01210.Na to protect primary human bone marrow cells from cytotoxic doses of radiation was studied in an in vitro assay. Initially, cytotoxicity studies were performed. Human bone marrow cells isolated from healthy volunteers were treated with increasing concentrations of ON 01210.Na for 2 and 24 hours and plated into methocult.
# FIG. 2. ON 01210.Na was not cytotoxic to human bone marrow cells in vitro. Human bone marrow cells were treated with various concentrations of ON 01210.Na for (A) 2 hrs or (B) 24 hrs. The cells were then plated into methocult medium. Total colony forming units were determined 14 days later.
# [4] = test system: HFL-1 (normal diploid lung fibroblasts) cells; assay: Clonogenic assay, radioprotection of HFL-1 cells against ionizing radiation; type: cell-based, human
# Excerpt: FIG. 1. Protection of HFL-1 cells against Ionizing Radiation (IR) by ON 01210.Na. Following drug treatment and radiation exposure, cells were re-plated and the number of colonies from each plate was enumerated three weeks later. A. Relation of concentration of ON 01210.Na to number of surviving colonies. B. Stained clonogenic assay plates.
# A clonogenic assay was used to measure radioprotection of ON 01210.Na on cultured human cells. Treatment of HFL-1 (normal diploid lung fibroblasts) cells with 2-20 μM of ON 01210.Na for 24 hours prior to cytotoxic levels of Ionizing Radiation (IR) (10 Gy) provided 3.3-4.7 fold protection in a dose-dependent manner (see FIG. 1A).HFL-1 cells, were treated with ON 01210.Na at final concentrations ranging from 2.0 to 20.0 μM. In a second experiment, cells were also treated with the drug for 24 h, but the drug was applied 4 h after irradiation.
# Following drug treatment and radiation exposure, cells were re-plated and the number of colonies from each plate was enumerated three weeks later. A. Relation of concentration of ON 01210.Na to number of surviving colonies. B. Stained clonogenic assay plates.
# [5] = test system: p53, p21, bax, c-abl and p73; assay: Protein levels in cells in response to radiation exposure; type: cell-based
# Excerpt: This reduction could be instrumental in decreased cell death and increased cell recovery in ON 01210.Na pretreated irradiated cells.
# human bone marrow cells [6] = assay: In vitro radiation protection of human bone marrow cells (methocult CFU); type: cell-based
# Protocol: FIG. 3. In vitro radiation protection of human bone marrow cells. Human bone marrow cells were treated with increasing concentrations of ON 01210.Na for 3 hours, and then irradiated with increasing doses of ionizing radiation. The cells were plated into methocult and the total number of CFUs was determined 14 days later.
# Radiation protection assays were then performed (FIG. 3). Cells were treated with ON 01210.Na for 3 hours, irradiated, and plated in methocult. The total number of colony forming units was determined 14 days later. […] This compared very favorably when analyzed against protection studies using amifostine as a positive control.
# Human bone marrow cells were treated with increasing concentrations of ON 01210.Na for 3 hours, and then irradiated with increasing doses of ionizing radiation. The cells were plated into methocult and the total number of CFUs was determined 14 days later.
# When we plotted the survival curve at the optimal concentration of ON 01210.Na (FIG. 3C) we were able to calculate a dose reduction factor (DRF) of 1.6. We also tested the radiation protection activity of amifostine. Amifostine concentrations were selected that closely mimicked the therapeutic plasma concentrations. […] The calculated DRF value of 1.5 was determined from these experiments.
compound,measurement,setting,value
"O=C([O-])c1ccc(/C=C/S(=O)(=O)Cc2ccc(Cl)cc2)cc1.[Na+] [ON 01210.Na, E-4-Carboxystyryl-4-chlorobenzylsulfone sodium salt]",protection from radiation exposure (clonogenic survival),human skin fibroblasts,protected
same,inhibition or stimulation of receptor binding,[1],No significant inhibition or stimulation
same,level of apoptosis-specific signaling events,[2],reduced the level of apoptosis-specific signaling events
same,damage to the jejunal crypt stem cells,jejunal crypt stem cells,significantly less damage
same,cytotoxicity to human bone marrow cells (total colony forming units),human bone marrow cells [3],non cytotoxic; also recorded: not cytotoxic; also recorded: nontoxic
same,fold protection (surviving colonies),"[4]; 2-20 μM for 24 hours prior to 10 Gy IR, dose-dependent",3.3-4.7 fold
same,number of cells per colony,[4]; ON 01210.Na treated group after IR,significant larger
same,protection from radiation exposure (clonogenic survival),[4]; human lung fibroblasts,protected
same,protection when cells treated post irradiation,"[4]; treated four hours post irradiation exposure, 24 h",significant protection
same,protein level of bax,[5],significantly reduce
same,protein level of c-abl,[5],significantly reduce
same,protein level of p21,[5],significantly reduce
same,protein level of p53,[5],significantly reduce
same,protein level of p73,[5],significantly reduce
same,range of concentrations that protected cells,human bone marrow cells [6],10 fold
same,optimal concentration for radiation protection,human bone marrow cells [6]; 3 hours treatment,10 µM
same,radiation protection of human bone marrow cells,"human bone marrow cells [6]; 3 hours treatment before irradiation, sodium salt",protect human bone marrow cells in a dose dependent manner; also recorded: protected human bone marrow cells in a dose responsive manner; also recorded: very effective; also recorded: reproducibly protect
same,dose reduction factor (DRF),"human bone marrow cells [6]; ON 01210.Na 10 μM (optimal), 3 hours before irradiation",1.6
